Test results published in patent US20250346621A1, “ASCAROSIDE SALTS” (Ascribe Bioscience Inc., priority 2022, published 2025).

System: Bipolaris sorokiniana
Assay: greenhouse-based plant pathogen assay: protection of wheat plants from Bipolaris sorokiniana damage
Format: in vivo
Conditions: two-week-old wheat plants sprayed with 1 μM, inoculated 24 h after treatment, symptoms quantified ten days after inoculation; compared with un-modified ascr #18; *P≤0.04
Method: The efficacy of the zinc salt of ascr #18 was compared to free ascr #18 in a greenhouse-based plant pathogen assay. Two-week-old wheat plants were sprayed with a solution containing 1 μM ascr #18, or 1 μM of the zinc salt (ascr #18)2Zn. 24 h after treatment, the plants were inoculated with spores of Bipolaris sorokiniana (causal agent of root rot and brown spot blotch). Disease symptoms were quantified ten days after inoculation by measuring the symptomatic area on the leaves.

CC(CCCCCCCCC(=O)[O-])OC1OC(C)C(O)CC1O.CC(CCCCCCCCC(=O)[O-])OC1OC(C)C(O)CC1O.[Zn+2] (stereo not shown) [(ascr #18)2Zn]
protection against pathogen damage (symptomatic area on the leaves): better protection against pathogen damage than un-modified ascr #18
